{"source": "patent EP2142646B1", "about": "“METHOD OF INCREASING OF THE PHOTOSYNTHETIC CARBON DIOXIDE ASSIMILATION YIELD” (priority 2007, dated 2008)", "key": {"[1]": {"tested_on": "photosynthesis", "assay": "Overall activity of photosynthesis in vivo: oxygen production by leaf target (Clark oxygen electrode)", "conditions": "for Net photosynthetic rate. PN, Average: average of 6 plants; for Net photosynthetic rate. PN: individual plants (Plant nr. 1-6), listed as 20E", "protocol": "Activity of photosynthesis was measured as the production of oxygen by circular target (average 35 mm) cut from the third leaf (counted from the top of the plant) that was placed in the sampling chamber. Assay: oxygen electrode (Clark electrode), sampling chamber LD2 (Hansatech, King's Lynn, Great Britain). Target was incubated in the dark for 5 minutes followed by 9 minutes of illumination; production of oxygen evaluated in the fifth-eighth minute after illumination (in the linear part of the light curve). Illumination was 240 micromol.m^-2.s^-1. Plants were 96 days old when analyzed (96 days after sowing). […]"}, "[2]": {"biological_target": "T1, RuBisCO (Spinacia oleracea, UniProt P00870+P00875)", "T1 construct": "from tissue; host or cells: spinach", "T1 sequence (P00870 whole entry, other chains not shown)": "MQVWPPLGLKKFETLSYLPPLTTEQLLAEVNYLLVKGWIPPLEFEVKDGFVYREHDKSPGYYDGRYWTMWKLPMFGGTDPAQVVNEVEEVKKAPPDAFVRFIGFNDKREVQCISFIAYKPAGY", "assay": "RuBisCO carboxylase assay (formation of acid-stable 14C product from NaH14CO3)", "assay_type": "biochemical, spinach", "description": "Relative amount of product detected represents the ratio of the amount of [1-14C]-3-phosphoglycerate produced by the reaction in the presence of 20E to the amount of [1-14C]-3-phosphoglycerate produced by the reaction in no presence of 20E.\nThe influence of ecdysteroids on RuBisCO assay was based on the protocol described by Pierce et al. (Pierce JW, McCurry SD, Mulligan RM, Tolbert NE. Activation and assay of ribulose-1,5-bisphosphate carboxylase/oxygenase. Methods Enzymol. 1982; 89: 47-55.), where the RuBisCO carboxylase activity is assayed by the rate of formation of acid-stable ^14C product, […], formed from NaH^14CO3. First, the enzyme from spinach was activated at 2 mg.mL^-1 in the activating buffer - 100 mM Bicine pH 8.2, non-labelled 10 mM NaHCO3, 20 mM MgCl2, 0.2 mM EDTA and 1 mM dithiodireitol - for ten minutes at 30 °C. The assay itself was carried out in 20 ml scintillation vials in a solution prepared by mixing 250 µL of 200 mM bicine buffer pH 8.2, 0.4 mM EDTA and 1 mM dithiothreitol, 5 µL of 2 M MgCl2, 150 µL of 20E solution or water (in the case of the control), 20 µL of 250 mM NaH^14CO3 solution and 20 µL of 12.5 mM ribulose-1,5-bisphosphate. 250 mM NaH^14CO3 was prepared by mixing NaH^14CO3 solution (specific activity 2 mCi/ml) with 0.3 M NaHCO3 in the ratio of 1:4. The reaction was initiated by the addition of 100 µL of the activated enzyme and the vial was swirled so that the solution components could mix. The reaction was stopped by the addition of 200 µL of 2 M HCl. To remove excess ^14CO2 and acid, the vials were slowly heated at 95 °C in a hood. After the liquid evaporated and the vials were cooled at laboratory temperature, 5 mL of scintillation solution Rotiszint® eco plus was added. The concentration of 20E was chosen so that its final molar concentration to the molar concentration of the enzyme in the vial was 1:1; the stock solution containing 1 mg of 20E per ml was diluted to the desired concentration just before the experiment.\nThe same experiment as in Example 1 was carried out but different amounts of 20-hydroxyecdysone were used.\nThe same experiment as in Example 1 was carried out but different brassinosteroids were used.\nThe same experiment as in Example 1 was carried out but different ecdysteroids were used.\nThe same experiment as in Example 1 was carried out but mixed ecdysteroid fractions were used."}, "[3]": {"biological_target": "small subunits of RuBisCO (Spinacia oleracea, UniProt P00870)", "sequence (P00870 whole entry)": "as the sequence (P00870 whole entry, other chains not shown) above", "assay": "Bioaffinity chromatography of steroid-binding proteins", "description": "As an example, ecdysteroids can be stated. […] Their function in plants has been unknown yet. We discovered that these compounds influence the carboxylase activity of the enzyme. The active enzyme consists of 8 large subunits and 8 small subunits considered to have regulatory role. We identified the small subunits as proteins able to bind 20-hydroxyecdysone (20HE) in bioaffinity chromatography."}, "[4]": {"conditions": "molar ratio of steroid to enzyme 10:1, relative to reaction without steroid"}}, "note": "Several values for one entry are separate records, joined by “and”; a condition that tells them apart may be missing. Equal entries are not always repeated."}
{"smiles": "CC(C)(O)CC[C@@H](O)[C@](C)(O)[C@H]1CC[C@@]2(O)C3=CC(=O)[C@@H]4C[C@@H](O)[C@@H](O)C[C@]4(C)[C@H]3CC[C@]12C", "note": "[20-hydroxyecdysone]", "values": [{"measurement": "Net photosynthetic rate. PN, Average", "setting": "[1]; 1 hour", "value": 21.09, "unit": "µmol O2.m^-2.s^-1"}, {"measurement": "Net photosynthetic rate. PN", "setting": "[1]; 1 hour, plants 96 days old, illumination 240 micromol.m^-2.s^-1", "value": "17.02 µmol O2.m^-2.s^-1 and 21.56 µmol O2.m^-2.s^-1 and 22.70 µmol O2.m^-2.s^-1 and 18.40 µmol O2.m^-2.s^-1 and 23.42 µmol O2.m^-2.s^-1 (2×)"}, {"measurement": "Net photosynthetic rate. PN, Average", "setting": "[1]; 2 hours", "value": 22.77, "unit": "µmol O2.m^-2.s^-1"}, {"measurement": "Net photosynthetic rate. PN", "setting": "[1]; 2 hours", "value": "18.73 µmol O2.m^-2.s^-1 and 21.56 µmol O2.m^-2.s^-1 and 23.83 µmol O2.m^-2.s^-1 and 23.42 µmol O2.m^-2.s^-1 and 25.10 µmol O2.m^-2.s^-1 and 23.98 µmol O2.m^-2.s^-1"}, {"measurement": "Net photosynthetic rate. PN, Average", "setting": "[1]; 4 hours", "value": 22.34, "unit": "µmol O2.m^-2.s^-1"}, {"measurement": "Net photosynthetic rate. PN", "setting": "[1]; 4 hours", "value": "21.56 µmol O2.m^-2.s^-1 and 22.70 µmol O2.m^-2.s^-1 and 22.31 µmol O2.m^-2.s^-1 (2×) and 21.75 µmol O2.m^-2.s^-1 and 23.42 µmol O2.m^-2.s^-1"}, {"measurement": "Net photosynthetic rate. PN, Average", "setting": "[1]; 6 hours", "value": 22.72, "unit": "µmol O2.m^-2.s^-1"}, {"measurement": "Net photosynthetic rate. PN", "setting": "[1]; 6 hours", "value": "23.83 µmol O2.m^-2.s^-1 and 22.70 µmol O2.m^-2.s^-1 and 22.31 µmol O2.m^-2.s^-1 (2×) and 21.75 µmol O2.m^-2.s^-1 and 23.42 µmol O2.m^-2.s^-1"}, {"measurement": "Relative amount of product detected", "setting": "[2]; molar ratio of steroid to enzyme 1:1, [1-14C]-3-phosphoglycerate relative to reaction without steroid", "value": 1.05}, {"measurement": "Relative amount of product detected", "setting": "[2]; [4]", "value": 1.13}, {"measurement": "Relative amount of product detected", "setting": "[2]; molar ratio of steroid to enzyme 20:1, relative to reaction without steroid", "value": 1.12}, {"measurement": "binding to small subunits of RuBisCO", "setting": "[3]", "value": "able to bind"}]}
{"smiles": "CC(C)[C@@H](C)[C@@H](O)[C@H](O)[C@@H](C)[C@H]1CC[C@H]2[C@@H]3COC(=O)[C@H]4C[C@H](O)[C@H](O)C[C@]4(C)[C@H]3CC[C@]12C", "note": "[24-epibrassinolide]", "values": [{"measurement": "Relative amount of product detected", "setting": "[2]; [4]", "value": 1.10}]}
{"smiles": "CC(C)[C@@H](C)[C@@H](O)[C@H](O)[C@@H](C)[C@H]1CC[C@H]2[C@@H]3CC(=O)[C@H]4C[C@H](O)[C@H](O)C[C@]4(C)[C@H]3CC[C@]12C", "note": "[24-epicastasterone]", "values": [{"measurement": "Relative amount of product detected", "setting": "[2]; [4]", "value": 1.20}]}
{"smiles": "CC(C)CC[C@@H](O)[C@](C)(O)[C@H]1CC[C@@]2(O)C3=CC(=O)[C@@H]4C[C@@H](O)[C@@H](O)C[C@]4(C)[C@H]3[C@H](O)C[C@]12C", "note": "[Ajugasterone C]", "values": [{"measurement": "Relative amount of product detected", "setting": "[2]; [4]", "value": 1.13}]}
{"smiles": "CC(C)(O)CC[C@@H](O)[C@](C)(O)[C@H]1CC[C@@]2(O)C3=CC(=O)[C@]4(O)C[C@@H](O)[C@@H](O)C[C@]4(C)[C@H]3CC[C@]12C", "note": "[Polypodine B]", "values": [{"measurement": "Relative amount of product detected", "setting": "[2]; [4]", "value": 1.11}]}
